Test results published in PubChem BioAssay AID1259407 (Chemical Carcinogenesis Research Information System (CCRIS), 2018).
Activity calls are given as the source filed them. The rule behind the calls is not given here.

Tested on: CCRIS mutagenicity, Ames/micronucleus/aberration tests
Assay: CCRIS mutagenicity studies
[1] = Test System: AMES SALMONELLA TYPHIMURIUM, Strain/Indicator: TA1537, Metabolic Activation: NONE, Method: STANDARD PLATE
[2] = Test System: AMES SALMONELLA TYPHIMURIUM, Strain/Indicator: TA98, Metabolic Activation: NONE, Method: STANDARD PLATE
[3] = Test System: AMES SALMONELLA TYPHIMURIUM, Strain/Indicator: TA100, Metabolic Activation: NONE, Method: STANDARD PLATE
[4] = Test System: AMES SALMONELLA TYPHIMURIUM, Strain/Indicator: TA100, Metabolic Activation: RAT, LIVER, S-9, AROCLOR 1254, Method: STANDARD PLATE
[5] = Test System: AMES SALMONELLA TYPHIMURIUM, Strain/Indicator: TA1535, Metabolic Activation: NONE, Method: STANDARD PLATE
[6] = Test System: AMES SALMONELLA TYPHIMURIUM, Strain/Indicator: TA1538, Metabolic Activation: NONE, Method: STANDARD PLATE
[7] = Test System: AMES SALMONELLA TYPHIMURIUM, Strain/Indicator: TA1538, Metabolic Activation: RAT, LIVER, S-9, AROCLOR 1254, Method: STANDARD PLATE

For `CCCCN=NC(C)(C)OO`, the mutagenic call (Test System: AMES SALMONELLA TYPHIMURIUM, Strain/Indicator: TA1535, Metabolic Activation: NONE) was “active; positive” and the mutagenic call (Test System: E. COLI, Strain/Indicator: WP2 (HCR-), Metabolic Activation: NONE) was “active; positive”.

In the case of `CN(C)CCNC(=O)c1cccc2nc3ccccc3nc12`, the mutagenic call [1] is reported as “active; positive”.

In the case of `Nc1nc2cc(Cl)c(Cl)cc2s1`, the mutagenic call (Test System: AMES SALMONELLA TYPHIMURIUM, Strain/Indicator: TA98, Metabolic Activation: HAMSTER, LIVER, S-9, AROCLOR 1254, Method: STANDARD PLATE) is reported as “inactive; negative”, the mutagenic call [2] is reported as “inactive; negative” and the mutagenic call (Test System: AMES SALMONELLA TYPHIMURIUM, Strain/Indicator: TA98, Metabolic Activation: RAT, LIVER, S-9, AROCLOR 1254, Method: STANDARD PLATE) is reported as “inactive; negative”. The mutagenic call (Test System: AMES SALMONELLA TYPHIMURIUM, Strain/Indicator: TA100, Metabolic Activation: HAMSTER, LIVER, S-9, AROCLOR 1254, Method: STANDARD PLATE) was “inactive; negative”, the mutagenic call [3] was “inactive; negative” and the mutagenic call [4] was “inactive; negative”. For the same molecule, the mutagenic call (Test System: AMES SALMONELLA TYPHIMURIUM, Strain/Indicator: TA1535, Metabolic Activation: HAMSTER, LIVER, S-9, AROCLOR 1254, Method: STANDARD PLATE) was “inactive; negative”, the mutagenic call [5] was “inactive; negative” and the mutagenic call (Test System: AMES SALMONELLA TYPHIMURIUM, Strain/Indicator: TA1535, Metabolic Activation: RAT, LIVER, S-9, AROCLOR 1254, Method: STANDARD PLATE) was “inactive; negative”. The mutagenic call (Test System: AMES SALMONELLA TYPHIMURIUM, Strain/Indicator: TA1537, Metabolic Activation: HAMSTER, LIVER, S-9, AROCLOR 1254, Method: STANDARD PLATE) was “inactive; negative”, the mutagenic call [1] was “inactive; negative” and the mutagenic call (Test System: AMES SALMONELLA TYPHIMURIUM, Strain/Indicator: TA1537, Metabolic Activation: RAT, LIVER, S-9, AROCLOR 1254, Method: STANDARD PLATE) was “inactive; negative”. The mutagenic call (Test System: AMES SALMONELLA TYPHIMURIUM, Strain/Indicator: TA1538, Metabolic Activation: HAMSTER, LIVER, S-9, AROCLOR 1254, Method: STANDARD PLATE) was “inactive; negative”, the mutagenic call [6] was “inactive; negative” and the mutagenic call [7] was “inactive; negative”. The mutagenic call (Test System: MOUSE LYMPHOMA, Strain/Indicator: L5178Y (TK+/TK-), Metabolic Activation: NONE, Method: SUSPENSION/PLATE) was “inactive; negative. reevaluation of results: negative” and the mutagenic call (Test System: MOUSE LYMPHOMA, Strain/Indicator: L5178Y (TK+/TK-), Metabolic Activation: RAT, LIVER, S-9, AROCLOR 1254, Method: SUSPENSION/PLATE) was “inactive; negative. reevaluation of results: negative”.

`CNNc1ccn([C@@H]2O[C@H](CO)[C@@H](O)[C@H]2O)c(=O)n1` was tested, and the mutagenic call (Test System: CHINESE HAMSTER V-79, Strain/Indicator: V-79/6-THIOGUANINE, Metabolic Activation: NONE, Method: REPLATING) was “active; positive”.

For `Nc1nc2c(ccc3ncccc32)s1`, the mutagenic call [7] was “active; positive”.

For `COc1cc(Oc2ccc(Cl)cc2Cl)ccc1N`, the mutagenic call (Test System: AMES SALMONELLA TYPHIMURIUM, Strain/Indicator: TA98, Metabolic Activation: S-9, Method: STANDARD PLATE) was “inactive; negative”, the mutagenic call (Test System: AMES SALMONELLA TYPHIMURIUM, Strain/Indicator: TA100, Metabolic Activation: S-9, Method: STANDARD PLATE) was “active; positive” and the mutagenic call (Test System: AMES SALMONELLA TYPHIMURIUM, Strain/Indicator: YG1021, Metabolic Activation: S-9, Method: STANDARD PLATE) was “inactive; negative”. For the same molecule, the mutagenic call (Test System: AMES SALMONELLA TYPHIMURIUM, Strain/Indicator: YG1024, Metabolic Activation: S-9, Method: STANDARD PLATE) was “active; positive”, the mutagenic call (Test System: AMES SALMONELLA TYPHIMURIUM, Strain/Indicator: YG1026, Metabolic Activation: S-9, Method: STANDARD PLATE) was “active; positive” and the mutagenic call (Test System: AMES SALMONELLA TYPHIMURIUM, Strain/Indicator: YG1029, Metabolic Activation: S-9, Method: STANDARD PLATE) was “active; positive”.

In the case of `COc1cc(O)c2c(=O)c3c(OC)cc4c(c3oc2c1OC)C1CCOC1O4` (stereo unspecified), the mutagenic call (Test System: AMES SALMONELLA TYPHIMURIUM, Strain/Indicator: TA98, Metabolic Activation: RAT, LIVER, S-9, PHENOBARBITAL, Method: STANDARD PLATE) is reported as “inactive; negative” and the mutagenic call (Test System: AMES SALMONELLA TYPHIMURIUM, Strain/Indicator: TA100, Metabolic Activation: RAT, LIVER, S-9, PHENOBARBITAL, Method: STANDARD PLATE) is reported as “inactive; negative”.

`COc1cccc2c1C(=O)c1c(O)c3c(c(O)c1C2=O)C[C@@](O)(C(=O)CO)C[C@@H]3O[C@H]1C[C@H](N)C[C@H](C)O1` was tested, and the mutagenic call (Test System: AMES SALMONELLA TYPHIMURIUM, Strain/Indicator: GW257, Metabolic Activation: NONE, Method: STANDARD PLATE) was “active; positive”, the mutagenic call [2] was “active; positive” and the mutagenic call [3] was “active; positive”. The mutagenic call [6] was “active; positive”, the mutagenic call (Test System: CHINESE HAMSTER V-79, Strain/Indicator: V-79/6-THIOGUANINE, Metabolic Activation: NONE, Method: SUSPENSION/PLATE) was “active; positive” and the mutagenic call (Test System: CHINESE HAMSTER V-79, Strain/Indicator: V-79/6-THIOGUANINE, Metabolic Activation: RAT, LIVER, HOMOGENATE, Method: SUSPENSION/PLATE) was “inactive; negative”.

For `ClCCN(CCCl)c1ccc2ccccc2c1`, the mutagenic call [3] was “active; positive”, the mutagenic call [4] was “active; positive” and the mutagenic call (Test System: AMES SALMONELLA TYPHIMURIUM, Strain/Indicator: TA100, Metabolic Activation: RAT, LIVER, S-9, AROCLOR (10%), Method: STANDARD PLATE) was “active; positive”. For the same molecule, the mutagenic call (Test System: AMES SALMONELLA TYPHIMURIUM, Strain/Indicator: TA100, Metabolic Activation: RAT, LIVER, S-9, AROCLOR (WITHOUT ADDED COFACTORS), Method: STANDARD PLATE) was “active; positive”, the mutagenic call [5] was “active; positive” and the mutagenic call (Test System: AMES SALMONELLA TYPHIMURIUM, Strain/Indicator: TA1535, Metabolic Activation: RAT, LIVER, S-9, AROCLOR (10%), Method: STANDARD PLATE) was “active; positive”.

For `Cc1cccc(C)c1[N+](=O)[O-]`, the mutagenic call (Test System: AMES SALMONELLA TYPHIMURIUM, Strain/Indicator: TA98, Metabolic Activation: NONE, Method: PREINCUBATION) was “inactive; negative”, the mutagenic call (Test System: AMES SALMONELLA TYPHIMURIUM, Strain/Indicator: TA98, Metabolic Activation: RAT, LIVER, S-9, KANECHLOR 500, Method: PREINCUBATION) was “inactive; negative” and the mutagenic call (Test System: AMES SALMONELLA TYPHIMURIUM, Strain/Indicator: TA100, Metabolic Activation: NONE, Method: PREINCUBATION) was “inactive; negative”. The mutagenic call (Test System: AMES SALMONELLA TYPHIMURIUM, Strain/Indicator: TA100, Metabolic Activation: RAT, LIVER, S-9, KANECHLOR 500, Method: PREINCUBATION) was “inactive; negative”.
